What was measured:
U251 = experiment: Alamar blue cell viability assay, U251 cells; format: cell-based; settings: Homo sapiens, U-251; 72 hours of treatment; mean±SEM, three independent experiments
Procedure: (§1) U87 and U251 cell lines were obtained from the European Collection of Cell Cultures (ECACC) through CellBank Australia. U87-EGFRvIII cell line was obtained from their lab of origin (Nishikawa et al., 1994, Proc Natl Acad Sci USA 91: 7727-7731) and tested for EGFR amplification and mutation by immunoblotting and flow cytometry. Cells were cultured in DMEM medium (Invitrogen by Life Technologies, Carlsbad, Calif., USA) supplemented with 10% FBS (Sigma-Aldrich) at 37° C. and 5% CO2. Primary gliomaspheres (RN1, classical; WK1, mesenchymal) were derived from glioblastoma specimens (Day et al., 2013, Cancers 5: 357-371; Day et al., 2013, Cancer Cell 23: 238-248), maintained in StemPro NSC serum-free media supplemented with EGF and FGF (all Life Technologies), and grown on matrigel-coated flasks (Pollard et al., 2009, Cell Stem Cell 4: 568-580).
(§2) Cell viability was determined using Alamar blue assay after 72 hours of treatment (Table 2). EC50 values were calculated using non-linear regression on Graph Pad Prism version 5. c Log P values calculated using ChemBioDraw Software. Results are mean±SEM from three independent experiments performed in triplicates.

U87vIII [1] = experiment: Alamar blue cell viability assay, U87vIII cells; format: cell-based; settings: 72 hours of treatment; mean±SEM, three independent experiments
Procedure: as §1, §2

U87 [2] = experiment: Alamar blue cell viability assay, U87 cells; format: cell-based; settings: Homo sapiens, U-87 MG; 72 hours of treatment; mean±SEM, three independent experiments
Procedure: as §1, §2

[3] = test system: RN1 gliomaspheres (classical); experiment: AlamarBlue cell viability assay, RN1 gliomaspheres; format: cell-based; settings: 72 h of drug treatment, FIG. 11A
Procedure: (§3) FIGS. 11A-11B. Efficacy of SC-38 (referred to as “CMPD1”), compound 1-08 (referred to as “cmpd 13”), compound 1-18 (referred to as “cmpd 7”), and compound 1-38 (referred to as “cmpd 10”) in primary gliomaspheres representing two glioblastoma subtypes. (11A) RN1, classical, and (11B) WK1, mesenchymal. Cellular efficacy (EC50) of test compounds was determined using AlamarBlue cell viability assay after 72 h of drug treatment. Data are mean±SEM from 3 independent experiments performed in triplicate.
as §1, with “568-580). […]” for “568-580).”

glioma cell lines = experiment: Viability (Alamar Blue) and cytotoxicity (ToxiLight) in glioma cell lines; format: cell-based; settings: 10 nM-10 μM, 72 hours
Procedure: Cells were treated with SC-38 (10 nM-10 μM) for 72 hours. Cells were subjected to viability testing (left, Alamar Blue viability assay, Invitrogen) and supernatant harvested for bioluminescent cytotoxicity analysis (right, ToxiLight™ bioassay kit, Lonza).

U87 [4] = experiment: Annexin-FITC/7-AAD apoptosis assay, U87 cells; format: cell-based; settings: 48 hours treatment
Procedure: (§4) FIGS. 4A-4D. […] U87 (4A-4B) and U87vIII (4C-4D) cells were treated with SC-38 for 48 hours and stained with Annexin-FITC/7-AAD. Apoptotic cells were visualized using the MUSE cell analyzer (Millipore).
(§5) FIGS. 6A-6D. […] U87 (A B) (6A-6B) and U87vIII (6C-6D) cells were treated with compound 1-08 for 48 hours and stained with Annexin-FITC/7-AAD. Apoptotic cells were visualized using the MUSE cell analyzer (Millipore). Results are means±SEM from 3 independent experiments. One-way ANOVA followed by Dunnet post-test was used to calculate statistical significance (***P<0.001).
(§6) U87 (FIGS. 4, A-B) and U87vIII (FIG. 4, C-D) cells were treated with SC-38 for 48 hours and stained with Annexin-FITC/7-AAD. Apoptotic cells were visualized using the MUSE cell analyzer (Millipore). Results are means±SEM from 3 independent experiments. One-way ANOVA followed by Dunnet post-test was used to calculate statistical significance (**P<0.01, ***P<0.001)
as §6, with “6,” for “4,”, “compound 1-08” for “SC-38”, “three” for “3”, “(***P<0.001).” for “(**P<0.01, ***P<0.001)”

U87vIII [5] = experiment: Annexin-FITC/7-AAD apoptosis assay, U87vIII cells; format: cell-based; settings: 48 hours treatment
Procedure: as §4, §5, §6
as §6, with “6,” for “4,”, “compound 1-08” for “SC-38”, “three” for “3”, “(***P<0.001).” for “(**P<0.01, ***P<0.001)”

[6] = test system: WK1 gliomaspheres (mesenchymal); experiment: AlamarBlue cell viability assay, WK1 gliomaspheres; format: cell-based; settings: 72 h of drug treatment, FIG. 11B
Procedure: as §3, §1
The effect of SC-38, and compounds 1-08, 1-18 and 1-38 in a cell viability assay employing patient-derived gliomaspheres was also investigated. RN1 gliomaspheres representing glioblastoma of the classical subtype were most responsive to the treatment (FIG. 11, where SC-38 is referred to as “CMPD1”, compound 1-08 is referred to as “compound 13”, compound 1-18 is referred to as “compound 7”, and compound 1-38 is referred to as “compound 10”).

Porcine brain tubulin = target: T1, Porcine brain tubulin (Sus scrofa, UniProt P02550+P02554); experiment: Fluorescence-based tubulin polymerisation assay; format: biochemical; settings: 37° C., FIG. 10A
T1 construct: purchased Cytoskeleton, Colo., USA (Tubulin Polymerisation Assay kit); host or cells: porcine brain (tissue-purified)
T1 sequence (P02550 whole entry): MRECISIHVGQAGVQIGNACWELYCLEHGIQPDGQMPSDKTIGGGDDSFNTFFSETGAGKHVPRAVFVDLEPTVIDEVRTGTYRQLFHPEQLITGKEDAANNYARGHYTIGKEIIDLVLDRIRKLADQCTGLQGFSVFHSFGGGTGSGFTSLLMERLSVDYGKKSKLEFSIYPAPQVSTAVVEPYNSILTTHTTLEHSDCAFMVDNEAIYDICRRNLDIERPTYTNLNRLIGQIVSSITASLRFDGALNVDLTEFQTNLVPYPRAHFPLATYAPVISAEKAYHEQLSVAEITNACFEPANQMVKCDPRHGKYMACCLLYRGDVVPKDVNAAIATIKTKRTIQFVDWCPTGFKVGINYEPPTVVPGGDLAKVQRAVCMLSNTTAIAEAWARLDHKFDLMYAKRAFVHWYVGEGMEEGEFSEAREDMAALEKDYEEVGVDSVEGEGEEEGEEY
T1 sequence (P02554 whole entry): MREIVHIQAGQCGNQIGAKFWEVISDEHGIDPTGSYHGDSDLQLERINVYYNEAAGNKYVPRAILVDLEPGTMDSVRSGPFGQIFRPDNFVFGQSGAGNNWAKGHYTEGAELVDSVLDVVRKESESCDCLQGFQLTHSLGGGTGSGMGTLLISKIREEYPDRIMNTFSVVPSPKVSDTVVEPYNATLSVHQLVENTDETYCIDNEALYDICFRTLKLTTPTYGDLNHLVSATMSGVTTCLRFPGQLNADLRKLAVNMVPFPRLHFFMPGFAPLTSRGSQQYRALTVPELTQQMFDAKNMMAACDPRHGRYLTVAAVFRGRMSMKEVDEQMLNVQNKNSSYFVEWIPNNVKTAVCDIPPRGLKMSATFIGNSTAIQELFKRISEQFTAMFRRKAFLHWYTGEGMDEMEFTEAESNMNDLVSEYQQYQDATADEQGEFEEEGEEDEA
Procedure: FIGS. 10A-10D. […] (10A) Compound 1-08 inhibits tubulin polymerisation in vitro. Data are expressed as mean from at least 3 independent experiments; each data point was performed in triplicates. (10B) U87 cells treated with compound 1-08 (24 h) were stained with Alexa488-labelled anti-β-tubulin antibody (green) or DAPI (blue). Treatment profoundly disturbed the microtubule network and caused formation of multinucleated cell (white arrows). White scale bar represents 50 μm. Multinucleated cells were manually counted and at least 200 cells were counted for each sample. Data in the bar graph (10C) are expressed as mean±SEM (n=3; * P<0.05, *** P<0.001; 1-way ANOVA followed by Newman-Keuls posttest). (10D) U87 cells were treated with compound 1-08 (48 h), tubulin and DNA were stained as in (10B). Treatment with 1-08 caused defective mitotic spindle formation. Representative images from 3 independent experiments are shown. White scale bar represents 2 μm.
The effect of compound 1-08 on tubulin polymerisation and mitotic spindle formation was also investigated. The fluorescence-based tubulin polymerisation assay was conducted in the final volume of 55 μL using the Tubulin Polymerisation Assay kit (Cytoskeleton, Colo., USA) as per the manufacturer's instructions. Porcine brain tubulin was incubated with test compounds (paclitaxel, vinblastine and compound 1-08) at 37° C. and fluorescence was measured using FLUOstar Omega microplate reader (BMG Labtech, Ortenberg, Germany; excitation at 355 nm and emission at 460 nm). […] To test whether compound 1-08 alters microtubules in vivo, U87 glioblastoma cells were treated with compound 1-08 and the effect on the microtubules was determined by immunofluorescence staining of β-tubulin. […] The consequence of microtubule depolymerisation induced by compound 13 was disrupted spindle assembly (FIG. 10D). In untreated U87 cells undergoing mitosis, microtubules are assembled into bipolar spindles (control images).

[7] = Brain uptake in BALB/c mice; format: in vivo; settings: 10 mg/kg intraperitoneally, brains harvested at 30 and 60 min, HPLC
Procedure: BALB/c mice were injected intraperitoneally with tested inhibitor (10 mg/kg) and brains harvested at 30 and 60 min. Solid-phase extraction was performed using brain homogenates and the amount of the test compound was determined with HPLC. Lapatinib data are from Polli, J. W. et al. “The Role of Efflux and Uptake Transporters in N-{3-Chloro-4-[(3-fluorobenzyl)oxy]phenyl}-6-[5-({[2-(methylsulfonyl)ethyl]amino}methyl)-2-furyl]-4-quinazolinamine (GW572016, Lapatinib) Disposition and Drug Interactions”, Drug Metabolism and Disposition 36, 695-701 (2008).

Structure (SMILES) | EC50 (U251) [nM] | EC50 (U87vIII [1]) [µM] | EC50 (U87 [2]) [µM] | other results
O=C(CCCc1ccc(-c2ccccc2F)cc1)Nc1ccc(O)cc1 [SC-38, reference compound] | 430 ± 100 | 0.68 ± 0.1 | 0.38 ± 0.1 | EC50 [3]: 260 nM; viability of glioma cell lines (glioma cell lines; Alamar Blue): decreases viability of glioma cell lines; cytotoxicity (ToxiLight) (glioma cell lines; supernatant): selectively cytotoxic; apoptosis, U87 (U87 [4]): induced apoptosis; apoptosis, U87vIII (U87vIII [5]): induced apoptosis; EC50 [6]: 910 nM
CC[C@]1(O)C[C@@H]2CN(CCc3c([nH]c4ccccc34)[C@@](C(=O)OC)(c3cc4c(cc3OC)N(C)[C@H]3[C@@](O)(C(=O)OC)[C@H](OC(C)=O)[C@]5(CC)C=CCN6CC[C@]43[C@@H]65)C2)C1 [vinblastine] |  |  |  | effect on tubulin polymerisation compared to control (Porcine brain tubulin): inhibited tubulin polymerisation in a dose-dependent manner
O=C(CCCc1ccc(Br)cc1)Nc1ccc(O)cc1 [Compound 1-17, 4-(4-bromophenyl)-N-(4-hydroxyphenyl)butanamide] | > 10000 | > 10 | > 10 | 
O=C(CCCc1ccc(-c2cccnc2F)cc1)Nc1ccc(O)cc1 [Compound 1-18, 4-(4-(2-fluoropyridin-3-yl)phenyl)-N-(4-hydroxyphenyl)butanamide] | 1600 ± 200 | 1.7 ± 0.1 | 1.4 ± 0.2 | brain uptake / crossing of the BBB [7]: readily crossed the BBB; EC50 [6]: 2000 nM
O=C(CCCc1ccc(-c2cccnc2F)cc1)Nc1ccccc1 [Compound 1-20, 4-(4-(2-fluoropyridin-3-yl)phenyl)-N-phenylbutanamide] | 4600 ± 200 | > 10 | 6.6 ± 0.9 | 
COc1ncc(-c2ccc(CCCC(=O)Nc3ccc(O)cc3)cc2)cn1 [Compound 1-19, N-(4-hydroxyphenyl)-4-(4-(2-methoxypyrimidin-5-yl)phenyl)butanamide] | > 10000 | > 10 | > 10 | 
NCc1ccc(-c2ccc(CCCC(=O)Nc3ccc(O)cc3)cc2)cc1 [Compound 1-07, 4-(4′-(aminomethyl)-[1,1′-biphenyl]-4-yl)-N-(4-hydroxyphenyl)butanamide] | 1500 ± 300 | 3.1 ± 1 | 1.8 ± 0.3 | 
CC(=O)O[C@H]1C(=O)[C@@]2(C)[C@H]([C@H](OC(=O)c3ccccc3)[C@]3(O)C[C@H](OC(=O)[C@H](O)[C@@H](NC(=O)c4ccccc4)c4ccccc4)C(C)=C1C3(C)C)[C@]1(OC(C)=O)CO[C@@H]1C[C@@H]2O [paclitaxel] |  |  |  | effect on tubulin polymerisation compared to control (Porcine brain tubulin): enhanced tubulin polymerisation

More lines, main results first:

EC50 (U251) [nM] | EC50 (U87vIII [1]) [µM] | EC50 (U87 [2]) [µM] | Structure (SMILES) | other results
1200 ± 100 | 4.3 ± 0.3 | 4.6 ± 0.8 | O=C(CCCc1ccc(-c2cccnc2)cc1)Nc1ccc(O)cc1 [Compound 1-38, N-(4-hydroxyphenyl)-4-(4-(pyridin-3-yl)phenyl)butanamide] | 
1650 ± 100 | 3.4 ± 0.4 | 2.9 ± 0.9 | O=C(CCCc1ccc(-c2ccc(F)nc2F)cc1)Nc1ccc(O)cc1 [Compound 1-22, 4-(4-(2,6-difluoropyridin-3-yl)phenyl)-N-(4-hydroxyphenyl)butanamide] | 
> 10000 | > 10 | 4.8 ± 1.2 | O=C(CCCc1ccc(-c2ccc(F)nc2)cc1)Nc1ccc(O)cc1 [Compound 1-21, 4-(4-(6-fluoropyridin-3-yl)phenyl)-N-(4-hydroxyphenyl)butanamide] | 
> 10000 | > 10 | > 10 | O=C(CCCc1ccc(-c2cncnc2)cc1)Nc1ccc(O)cc1 [Compound 1-01, N-(4-hydroxyphenyl)-4-(4-(pyrimidin-5-yl)phenyl)butanamide] | 
